From patent EP1038880B1, “Androstanes and pregnanes for allosteric modulation of GABA receptor” (priority 1994, dated 1995)

Molecular target: T1, Hippocampal Mineralocorticoid Receptors (Rattus norvegicus, UniProt P22199)
T1 construct: To isolate the mineralocorticoid receptor, brain cytosol fractions were prepared; from tissue; host or cells: rat brain (hippocampal) cytosol
T1 sequence (P22199 1-981): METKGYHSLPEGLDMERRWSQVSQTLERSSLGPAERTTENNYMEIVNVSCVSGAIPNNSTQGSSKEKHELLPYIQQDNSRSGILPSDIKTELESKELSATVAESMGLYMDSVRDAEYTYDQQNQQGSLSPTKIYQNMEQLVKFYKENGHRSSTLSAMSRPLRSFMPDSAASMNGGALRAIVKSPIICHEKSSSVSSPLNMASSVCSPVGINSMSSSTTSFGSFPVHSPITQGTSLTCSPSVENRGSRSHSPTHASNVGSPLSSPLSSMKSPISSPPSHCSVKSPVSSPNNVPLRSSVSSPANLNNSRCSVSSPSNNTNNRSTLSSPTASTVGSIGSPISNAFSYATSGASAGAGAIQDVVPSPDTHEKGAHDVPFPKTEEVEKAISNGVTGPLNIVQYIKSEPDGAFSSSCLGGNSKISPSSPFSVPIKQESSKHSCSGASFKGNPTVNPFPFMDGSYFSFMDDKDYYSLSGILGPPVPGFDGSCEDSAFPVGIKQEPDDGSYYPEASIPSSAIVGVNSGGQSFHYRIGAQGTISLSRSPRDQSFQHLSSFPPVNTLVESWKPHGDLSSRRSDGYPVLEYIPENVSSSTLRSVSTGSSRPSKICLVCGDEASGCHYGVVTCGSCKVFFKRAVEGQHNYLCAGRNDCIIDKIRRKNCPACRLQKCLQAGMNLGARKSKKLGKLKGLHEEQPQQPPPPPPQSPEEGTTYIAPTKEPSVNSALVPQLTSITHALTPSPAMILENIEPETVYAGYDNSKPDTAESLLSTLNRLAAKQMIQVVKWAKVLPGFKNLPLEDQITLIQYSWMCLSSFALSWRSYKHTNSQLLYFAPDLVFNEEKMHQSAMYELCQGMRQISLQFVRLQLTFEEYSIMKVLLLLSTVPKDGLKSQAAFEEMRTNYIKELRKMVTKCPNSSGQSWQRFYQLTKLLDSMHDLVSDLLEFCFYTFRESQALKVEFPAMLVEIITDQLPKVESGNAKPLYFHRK
Test: Inhibition of 3H-aldosterone binding, brain cytosol
Set-up: species or system rats
Details: competitor 10^-6M; 3 nM 3H-aldosterone, RU28362 0.5 µM

Work on `C[C@]12CC[C@@H](O)C[C@@H]1CC[C@@H]1[C@@H]2CC[C@]2(C)[C@@H](C(=O)CO)CC[C@@H]12` [3α,21-dihydroxy-5α-pregnan-20-one] yielded an inhibition at 1 µM of 76.7%.
